Measured values reported in ChEMBL document CHEMBL5344406, “1,2,3-Triazole-containing hybrids with potential antibacterial activity against ESKAPE pathogens” (2022).
Converted amounts (≈) assume the structure as drawn.

Assays:
Assay type in all cases: functional
[1] = tested on: Staphylococcus aureus; assay: Potency index, ratio of Linezolid MIC to test compound MIC for antibacterial activity against methicillin- resistant Staphylococcus aureus assessed as bacterial growth inhibition by dilution method
[2] = tested on: Staphylococcus aureus; assay: Antibacterial activity against methicillin- resistant Staphylococcus aureus assessed as bacterial growth inhibition by dilution method
[3] = tested on: Staphylococcus aureus; assay: Antibacterial activity against Staphylococcus aureus assessed as bacterial growth inhibition by dilution method
[4] = tested on: Escherichia coli; assay: Antibacterial activity against Escherichia coli MTCC 443 assessed as bacterial growth inhibition incubated for 24 hrs by serial dilution method
[5] = tested on: Klebsiella pneumoniae; assay: Antibacterial activity against Klebsiella pneumoniae NCDC 138 assessed as bacterial growth inhibition incubated for 24 hrs by serial dilution method
[6] = tested on: Streptococcus pyogenes; assay: Potency index, ratio of Ciprofloxacin MIC to test compound MIC for antibacterial activity against Streptococcus pyogenes MTCC 442 assessed as bacterial growth inhibition by broth microdilution method
[7] = tested on: Staphylococcus aureus; assay: Antibacterial activity against Staphylococcus aureus MTCC 96 assessed as bacterial growth inhibition by broth microdilution method
[8] = tested on: Pseudomonas aeruginosa; assay: Potency index, ratio of Ciprofloxacin MIC to test compound MIC for antibacterial activity against Pseudomonas aeruginosa MTCC 1688 assessed as bacterial growth inhibition by broth microdilution method
[9] = tested on: Pseudomonas aeruginosa; assay: Antibacterial activity against Pseudomonas aeruginosa MTCC 1688 assessed as bacterial growth inhibition by broth microdilution method
[10] = tested on: Streptococcus pyogenes; assay: Antibacterial activity against Streptococcus pyogenes MTCC 442 assessed as bacterial growth inhibition by broth microdilution method
[11] = tested on: Escherichia coli; assay: Potency index, ratio of Ciprofloxacin MIC to test compound MIC for antibacterial activity against Escherichia coli MTCC 443 assessed as bacterial growth inhibition by broth microdilution method
[12] = tested on: Escherichia coli; assay: Antibacterial activity against Escherichia coli MTCC 443 assessed as bacterial growth inhibition by broth microdilution method
[13] = tested on: Staphylococcus aureus; assay: Potency index, ratio of Ciprofloxacin MIC to test compound MIC for antibacterial activity against Staphylococcus aureus MTCC 96 assessed as bacterial growth inhibition by broth microdilution method
[14] = tested on: Staphylococcus aureus; assay: Antibacterial activity against Staphylococcus aureus ATCC 29213 assessed as bacterial growth inhibition incubated for 16 to 20 hrs by CLSI based broth microdilution method; settings: time 16-20 hrs
[15] = tested on: Staphylococcus aureus; assay: Antibacterial activity against Staphylococcus aureus ATCC 25923 assessed as bacterial growth inhibition incubated for 18 to 20 hrs by broth microdilution method; settings: time 18-20 hrs
[16] = tested on: Escherichia coli; assay: Antibacterial activity against Escherichia coli ATCC 25922 assessed as bacterial growth inhibition incubated for 16 to 20 hrs by CLSI based broth microdilution method; settings: time 16-20 hrs
[17] = tested on: Pseudomonas aeruginosa; assay: Antibacterial activity against Pseudomonas aeruginosa ATCC 27853 assessed as bacterial growth inhibition incubated for 16 to 20 hrs by CLSI based broth microdilution method; settings: time 16-20 hrs
[18] = tested on: Bacillus subtilis; assay: Antibacterial activity against Bacillus subtilis assessed as bacterial growth inhibition by agar well diffusion method
[19] = tested on: Pseudomonas aeruginosa; assay: Antibacterial activity against Pseudomonas aeruginosa assessed as bacterial growth inhibition by agar well diffusion method
[20] = tested on: Escherichia coli; assay: Antibacterial activity against Escherichia coli assessed as bacterial growth inhibition by agar well diffusion method
[21] = tested on: Staphylococcus aureus; assay: Antibacterial activity against Staphylococcus aureus assessed as bacterial growth inhibition by agar well diffusion method

CC(=O)NC[C@H]1CN(c2ccc(-n3cc(-c4ncccn4)nn3)c(F)c2)C(=O)O1 was tested, and the Ratio [1] was 4, the MIC [2] was 0.5 µg/mL (≈ 1.26 µM) and the MIC [3] was 2 µg/mL (≈ 5.03 µM).

CC(C)(NS(=O)(=O)c1ccccc1)c1cn(-c2ccc(Br)cc2)nn1 showed an MIC [4] of 25 µg/mL (≈ 59.3 µM) and an MIC [5] of 12.5 µg/mL (≈ 29.7 µM).

CN(C)Cc1cn([C@@H]2C(=O)N3[C@@H]2SC(C)(C)[C@@H]3C(=O)O)nn1 gave a Ratio [6] of 2.5, an MIC [7] of 0.5 µg/mL (≈ 1.54 µM) and a Ratio [8] of 2.5. It also gave an MIC [9] of 0.5 µg/mL (≈ 1.54 µM), an MIC [10] of 0.5 µg/mL (≈ 1.54 µM) and a Ratio [11] of 2.5. It also gave an MIC [12] of 0.5 µg/mL (≈ 1.54 µM) and a Ratio [13] of 2.5.

Work on CC(=O)OC[C@@H]1O[C@H](n2cc(CNC(=O)c3ccc(-c4ccc(Br)cc4)o3)nn2)[C@@H](OC(C)=O)[C@H](OC(C)=O)[C@H]1OC(C)=O yielded an MIC [14] of over 250 µg/mL, an MIC [15] of over 250 µg/mL and an MIC [16] of over 250 µg/mL. For the same compound, the MIC [17] was over 250 µg/mL.

Compound COc1ccc(-c2cc(-c3cccs3)nc(OCc3cn(CC(=O)Nc4ccc(C(C)=O)cc4)nn3)c2O)cc1 has an MIC [18] of 0.5 µg/mL (≈ 0.9 µM), an MIC [19] of 0.5 µg/mL (≈ 0.9 µM) and an MIC [20] of 0.5 µg/mL (≈ 0.9 µM). The MIC [21] was 0.5 µg/mL (≈ 0.9 µM).
